Results on 29 compounds are retold here after patent US20040102431A1, “Substituted amino-aza-cycloalkanes useful against malaria” (priority 2000, published 2004).

SMILES strings stand for the structures.

In one experiment the target is plasmepsin II (Plasmodium falciparum, UniProt P46925). As to the kind of experiment: biochemical. To be noted: Additional Examples table; FRET, pH 5, 37° C., 40 min, substrate 1 μM; read-out: IC50 (nM) on plasmepsin II.
Sequence of plasmepsin II (P46925 125-453): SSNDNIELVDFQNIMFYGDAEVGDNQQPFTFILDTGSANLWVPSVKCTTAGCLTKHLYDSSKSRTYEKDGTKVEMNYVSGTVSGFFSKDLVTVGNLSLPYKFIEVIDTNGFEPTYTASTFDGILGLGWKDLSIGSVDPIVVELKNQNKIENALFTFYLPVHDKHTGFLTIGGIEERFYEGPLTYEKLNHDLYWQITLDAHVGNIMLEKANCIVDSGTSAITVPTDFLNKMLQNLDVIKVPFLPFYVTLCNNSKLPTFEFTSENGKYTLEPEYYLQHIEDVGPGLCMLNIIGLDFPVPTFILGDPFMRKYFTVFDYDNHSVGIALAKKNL
Regarding `CCCCCc1ccc(C(=O)N(Cc2ccc(-c3cccnc3)cc2)C2CCN(CC3=CCCCC3)CC2)cc1` [Example 61, N-(1-Cyclohex-1-enylmethyl-piperidin-4-yl)-4-pentyl-N-(4-pyridin-3-yl-benzyl)benzamide], the IC50 is 89 nM.

Take `CCCCCc1ccc(C(=O)N(Cc2ccc(-c3ccc(C#N)cc3)cc2)C2CCN(Cc3ccccc3)CC2)cc1` [Example 59, N-(1-Benzyl-piperidin-4-yl)-N-(4′-cyano-biphenyl-4-ylmethyl)-4-pentyl-benzamide]: the IC50 was 81 nM.

Regarding `CCCCCc1ccc(C(=O)N(Cc2ccc(OCC)cc2)C2CCN(Cc3ccccc3)CC2)cc1` [Example 94, N-(1-Benzylpiperidin-4-yl)-N-(4-ethoxybenzyl)-4-pentylbenzamide], the concentration for half-maximal inhibition (IC50) stood at 284 nM.

For the compound `CCCCCc1ccc(C(=O)N(Cc2ccc(-c3ccc(C#N)cc3)cc2)C2CCN(Cc3ccncc3)CC2)cc1` [Example 42, N-(4′-Cyano-biphenyl-4-ylmethyl)-4-pentyl-N-(1-pyridin-4-ylmethylpiperidin-4-yl)benzamide], the 50% inhibitory concentration (IC50) amounted to 28 nM.

For `CCCCCc1ccc(C(=O)N(Cc2ccc(-c3ccc4c(c3)OCO4)cc2)C2CCN(Cc3ccc(O)cc3)CC2)cc1` [Example 62, N-(4-Benzo[1,3]dioxol-5-yl-benzyl)-N-[1-(4-hydroxybenzyl)piperidin-4-yl]-4-pentylbenzamide], the IC50 was determined as 90 nM.

Turning to `CCCCCc1ccc(C(=O)N(Cc2ccc(-c3ccc(OC)c(OC)c3)cc2)C2CCN(Cc3cccnc3)CC2)cc1` [Example 46, N-(3′,4′-Dimethoxybiphenyl-4-ylmethyl)-4-pentyl-N-(1-pyridin-3-ylmethylpiperidin-4-yl)benzamide], the IC50 turned out to be 45 nM.

As to `CCCCCc1ccc(CN(Cc2ccc(-c3cccc(C(F)(F)F)c3)cc2)C2CCN(Cc3ccccc3)CC2)cc1` [Example 108, (1-Benzylpiperidin-4-yl)-(4-pentyl-benzyl)-(3′-trifluoromethyl-biphenyl-4-ylmethyl)amine], the 50% inhibitory concentration (IC50) turned out to be 634 nM.

For `CCCCCc1ccc(C(=O)N(Cc2ccc(-c3cncnc3)cc2)C2CCN(Cc3ccccc3)CC2)cc1` [Example 87, N-(1-Benzylpiperidin-4-yl)-4-pentyl-N-(4-pyrimidin-5-ylbenzyl)benzamide], the IC50 came to 250 nM.

With `CCCCCc1ccc(C(=O)N(Cc2ccc(OC)cc2)C2CCN(Cc3ccccc3)CC2)cc1` [Example 98, N-(1-Benzylpiperidin-4-yl)-N-(4-methoxybenzyl)-4-pentyl-benzamide], the half-inhibitory concentration (IC50) came out at 322 nM.

Take `CCCCCc1ccc(C(=O)N(Cc2ccc(-c3ccccc3)cc2)C2CCN(Cc3ccc(F)cc3)CC2)cc1` [Example 101, N-Biphenyl-4-ylmethyl-N-[1-(4-fluorobenzyl)piperidin-4-yl]-4-pentylbenzamide]: the concentration for half-maximal inhibition (IC50) turned out to be 385 nM.

In the case of `CCCCCc1ccc(C(=O)N(Cc2ccc(-c3cccnc3)cc2)C2CCN(Cc3ccc(CO)o3)CC2)cc1` [Example 72, N-[1-(5-Hydroxymethyl-furan-2-ylmethyl)piperidin-4-yl]-4-pentyl-N-(4-pyridin-3-ylbenzyl)benzamide], the IC50 came out at 128 nM.

Turning to `CCCCCc1ccc(C(=O)N(Cc2ccc(-c3ccccn3)cc2)C2CCN(CC3=CCCCC3)CC2)cc1` [Example 70, N-(1-Cyclohex-1-enylmethylpiperidin-4-yl)-4-pentyl-N-(4-pyridin-2-ylbenzyl)benzamide], the half-maximal inhibitory concentration (IC50) stood at 125 nM.

With `CCCCCc1ccc(C(=O)N(Cc2ccc(-c3cccnc3)cc2)C2CCN(Cc3ccsc3)CC2)cc1` [Example 45, 4-Pentyl-N-(4-pyridin-3-yl-benzyl)-N-(1-thiophen-3-ylmethylpiperidin-4-yl)benzamide], the IC50 was 42 nM.

Take `CCCCCc1ccc(C(=O)N(Cc2ccc(-c3ccccc3F)cc2)C2CCN(Cc3ccc(O)cc3)CC2)cc1` [Example 76, N-(2′-Fluorobiphenyl-4-ylmethyl)-N-[1-(4-hydroxybenzyl)piperidin-4-yl]-4-pentylbenzamide]: the 50% inhibitory concentration (IC50) came to 152 nM.

In the case of `CCCCCc1ccc(C(=O)N(Cc2ccc(OCc3ccccc3)cc2)[C@H]2CCN(Cc3ccccc3)C2)cc1` [Example 75, N-(4-Benzyloxybenzyl)-N-((3S)-1-benzylpyrrolidin-3-yl)-4-pentylbenzamide], the IC50 amounted to 141 nM.

`CCCCCc1ccc(C(=O)N(Cc2ccc(-c3ccccc3)cc2)C2CCN(Cc3cccnc3)CC2)cc1` [Example 65, N-Biphenyl-4-ylmethyl-4-pentyl-N-(1-pyridin-3-ylmethylpiperidin-4-yl)benzamide]: the IC50 turned out to be 103 nM.

In the case of `CCCCCc1ccc(C(=O)N(Cc2ccc3ccccc3c2)C2CCN(Cc3ccccc3)CC2)cc1` [Example 86, N-(1-Benzylpiperidin-4-yl)-N-naphthalen-2-ylmethyl-4-pentylbenzamide], the IC50 amounted to 248 nM.

In the case of `CCCCCc1ccc(C(=O)N(Cc2ccc(-c3ccc(C#N)cc3)cc2)C2CCN(Cc3cccnc3)CC2)cc1` [Example 55, N-(4′-Cyanobiphenyl-4-ylmethyl)-4-pentyl-N-(1-pyridin-3-ylmethylpiperidin-4-yl)benzamide], the 50% inhibitory concentration (IC50) is 68 nM.

As to `CCCCCc1ccc(C(=O)N(Cc2ccc(-c3cccnc3)cc2)C2CCN(CCC(C)C)CC2)cc1` [Example 39, N-[1-(3-Methylbutyl)piperidin-4-yl]-4-pentyl-N-(4-pyridin-3-yl-benzyl)benzamide], the IC50 was 20 nM.

On to `CCCCCc1ccc(C(=O)N(Cc2ccc(-c3cccnc3)cc2)C2CCN(Cc3ccc(O)cc3)CC2)cc1` [N-[1-(4-Hydroxybenzyl)piperidin-4-yl]-4-pentyl-N-(4-pyridin-3-yl-benzyl)benzamide], for which the IC50 worked out at 105 nM.

Regarding `CCCCCc1ccc(C(=O)N(Cc2ccc(-c3ccc(OC)c(OC)c3)cc2)C2CCN(CC3=CCCCC3)CC2)cc1` [Example 38, N-(1-Cyclohex-1-enylmethyl-piperidin-4-yl)-N-(3′,4′-dimethoxybiphenyl-4-ylmethyl)-4-pentylbenzamide], the IC50 was 19 nM.

Turning to `CCCCCc1ccc(C(=O)N(Cc2ccc(-c3ccc(OC)c(OC)c3)cc2)C2CCN(Cc3ccoc3)CC2)cc1` [Example 43, N-(3′,4′-Dimethoxybiphenyl-4-ylmethyl)-N-(1-furan-3-ylmethylpiperidin-4-yl)-4-pentylbenzamide], the IC50 worked out at 31 nM.

As for `CCCCCc1ccc(C(=O)N(Cc2ccc(-c3ccc(C#N)cc3)cc2)C2CCN(CC3=CCCCC3)CC2)cc1` [Example 40, N-(4′-Cyanobiphenyl-4-ylmethyl)-N-(1-cyclohex-1-enylmethyl-piperidin-4-yl)-4-pentylbenzamide], the IC50 was 25 nM.

Staying with this experiment, now noted: […]; FRET, pH 5, 37° C., 40 min, substrate 1 μM; read-out: IC50 (nM) on plasmepsin II.
Consider `CCCCCc1ccc(C(=O)N(Cc2ccc(OCCCC)cc2)C2CCN(Cc3ccccc3)CC2)cc1` [Example 25], for which the IC50 was 220 nM.

On to `CCCCCc1ccc(C(=O)N(Cc2ccc(-c3ccccc3)cc2)C2CCCN(Cc3ccccc3)CC2)cc1` (racemic) [Example 35], for which the IC50 was 1700 nM.

Take `CCCCCCCCCCCC(=O)N(Cc1ccc(-c2ccccc2)cc1)C1CCN(Cc2ccccc2)CC1` [Example 16]: the IC50 amounted to 1300 nM.

Regarding `CCCCOc1ccc(C(=O)N(Cc2ccc(-c3ccccc3)cc2)C2CCN(Cc3ccccc3)CC2)cc1` [Example 15], the concentration for half-maximal inhibition (IC50) stood at 1300 nM.

`CCCCCCCCCCCC(=O)N(Cc1ccc(OCc2ccccc2)c(OCc2ccccc2)c1)C1CCN(Cc2ccccc2)CC1` [Example 13]: the half-inhibitory concentration (IC50) turned out to be 2400 nM.

`CCCCOc1ccc(C(=O)N(Cc2ccc(OCc3ccccc3)c(OCc3ccccc3)c2)C2CCN(Cc3ccccc3)CC2)cc1` [Example 11]: the 50% inhibitory concentration (IC50) was 3200 nM.

One may read the IC50 as the concentration at which inhibition is half-maximal.
